Where “and” joins values, the source holds several entries; their conditions need not be identical. Equal entries are not always repeated.
What was measured:
Assay type in all cases: in vivo, mouse
[1] = tested on: growth plate chondrocytes of Fgfr3^Y367C/+ mice; assay: Fgfr3Y367C/+ mice: histology and immunohistochemistry of distal femur growth plate (H&E, collagen type X, PCNA, HZC count)
Method: To understand the effects of TYRA-300 treatment on the growth plate cartilage and chondrocytes and the mechanism through which TYRA-300 increases bone growth, histological analysis of the femurs of Fgfr3^Y367C/+ mice was performed. […] Treatment also facilitated angiogenesis, deposition of bone matrix, and resorption of the cartilage. In addition, the overall structure of the growth plate was more organized after treatment with TYRA-300. […] The organization of the hypertrophic zone, with HZCs organized in columns, appeared similar in TYRA-300–treated Fgfr3^Y367C/+ mice and Fgfr3^+/+ mice. Within the hypertrophic zone of TYRA-300–treated mice, the HZCs were larger than in vehicle-treated mice.
(§1) The right femur and lumbar vertebrae segment L4–L6 were collected and fixed in 4% paraformaldehyde, decalcified with ethylenediaminetetraacetic acid (EDTA) 0.5 M (pH 8) for 2 or 3 weeks, and embedded in paraffin. Serial paraffin sections of 5 μm were stained with hematoxylin, eosin, and Safranin O. For immunohistochemistry, sections were labeled with antibodies against collagen type X (BIOCYC ref. [1]-CO097-05-RUO, 1:100 dilution), collagen type I (Novotec, 20151, dilution 1:1,000), pERK (Cell Signaling, 4370S, dilution 1:1,000), and PCNA (Abcam, GR3195972-6, 1:500 dilution) using the Dako Envision Kit. Images were captured with an Olympus PD70-IX2-UCB microscope and CellSens software (Olympus Life Science Solutions). Cells were counted using ImageJ software (NIH, Laboratory for Optical Computational Instrumentation).

[2] = tested on: lumbar vertebrae of Fgfr3^N534K/+ mice; assay: Fgfr3N534K/+ mice: histology of lumbar vertebrae and intervertebral disc; settings: 1.8 mg/kg daily for 21 days
Excerpt: We also analyzed the lumbar vertebrae and intervertebral disc (Figure 5E).
as §1

[3] = tested on: foramen magnum of Fgfr3^N534K/+ mice; assay: Fgfr3N534K/+ mice: microCT of foramen magnum, grade of synchondroses; design: key to grade of synchondroses after treatment: I: border of synchondroses were completely separated; II: clear separation of synchondroses with some areas suspicious for bone bridging; III: synchondroses showing bony bridge between 2 borders; IV: completely fused synchondroses with remnants of margin (cartilage); V: completely fused synchondroses; source data of Figure 5C (sheet "5C"): grade of synchondroses: scale not given here
Method: Finally, to confirm the effects of TYRA-300 on the axial skeleton in Fgfr3^N534K/+ mice, μCT imaging of the foramen magnum was performed at the end of treatment.
Whole body x-ray images were taken of all animals by Faxitron specimen radiography MX-20 (Faxitron X-Ray LLC) following terminal sacrifice. The length of the L4–L6 lumbar vertebra segment was also measured for each animal using calipers, and the height of the L5 vertebral body was measured from Alcian blue/Sirius red images. Long bones and the skull were then excised, and their dimensions were measured using calipers (VWRi819-0013, VWR International). The transverse and sagittal diameters of the foramen magnum were also measured using calipers for the Fgfr3^Y367/+ model, and measured using the μCT images for the Fgfr3^N534K/+ model.
The heads of all mice were isolated, and skin was stripped before being placed in 70% ethanol at 4°C. μCT images of the skulls were measured on the Skyscan-1272 (Bruker) with the following parameters: 10 μm resolution, 680 ms exposure, 70 kV, 142 μA, and 0.350° rotation step. The μCT data were analyzed using DataViewer and CTAn software (version 1.20.8) to perform postprocessing techniques in 3D. The nasio-occipital length and anteroposterior length of the skull were measured using 2D μCT images.

[4] = 1.8 mg/kg daily for 21 days, microCT

## C[C@@H](Oc1ccc2[nH]nc(-c3ccc(N4CC5(C4)CN(S(C)(=O)=O)C5)nc3)c2c1)c1c(Cl)cncc1Cl [TYRA-300]
[1]; 1.2 mg/kg s.c. daily for 15 days
  expression of PCNA in distal femoral growth plate: a more well-defined positive zone within the growth plate
[1]; 1.2 mg/kg s.c. daily for 15 days, distal femur
  number of HZCs within the ROI vs vehicle: significant decrease
[1]; present study
  type X collagen staining in the HZCs: partial restoration
[2]
  shape of the intervertebral disc: slightly modified the shape of the intervertebral disc
[3]; 1.8 mg/kg daily for 21 days, data not shown
  change in transverse diameter of the foramen magnum: not a statistically significant change
[3]; [4]
  increase in area of the foramen magnum vs vehicle: 7.51%
  increase in sagittal diameter of the foramen magnum vs vehicle: 6.35%
[3]; 1.8 mg/kg daily for 21 days, most mice, vehicle grade V
  grade of synchondroses after treatment: IV
[3]; Fgfr3N534K/+ mice + TYRA-300, individual animal values
  source data of Figure 5C (sheet "5C"): grade of synchondroses: 5 and 4

From paper PMC12128972, “TYRA-300, an FGFR3-selective inhibitor, promotes bone growth in two FGFR3-driven models of chondrodysplasia” (JCI Insight, 2025)
